In patent US6001383A (priority 1994, dated 1999):
Where two headings read alike, the source gives them in different places.

How the values were obtained:
[1] = tested on: Rhyzopertha dominica (F.), strain Rd2; details: R. dominica adults, cited from earlier work
[2] = tested on: Cryptotermes cyanocephalos; test: Toxicity to dry wood termites, C. cyanocephalos; type: in vivo; details: 24 h, 30° C., survival after one week
Description: (§1) Termites were obtained from cultures kept at 30° C. and 80% RH. Termites were transferred to 120 mL bottles fitted with Mininert valved lids and a 325 mg chip of plywood and sealed whilst at 80% RH and 30° C. All fumigations were performed in duplicate with a sample size of 10-11 insects for C. brevis, 25 insects for C. cyanocephalos and 22 insects for C. domesticus. An appropriate volume of air was removed from the sample bottles prior to the addition of fumigants. Dosed samples were analysed on a gas chromatograph to ensure concentrations were as predicted. A second set of gas chromatograph readings was taken prior to airing to ensure fumigant concentrations had remained static throughout the exposure period. […]
(§2) C2 N2 concentrations were measured on a Varian 3300 Gas Chromatograph equipped with a Thermionic Specific Detactor after separation on a DBwax column of internal diameter 0.53 mm. Phosphine concentrations were measured on a Shimadzu 6AM equipped with a Flame Photometric Detector. Methyl bromide concentrations were measured on a Shimadzu 6AM equipped with a Flame Ionisation Detector after separation on a GasChromQ with 20% OV-IO1 column.
(§3) After 24 hours exposure, termites and wood chips were transferred to plastic Petri dishes each containing a large piece of plywood. Initial and one week survivals were recorded.

[3] = Sorption and desorption on wheat, comparative; details: 25 g wheat; C2 N2 10 mg/L, phosphine 2 mg/L, methyl bromide 32 mg/L
Description: Samples of wheat (25 g) were placed in 250 mL conical flasks of known volume. The flasks were stoppered with a gas tight stopper containing a rubber septum (injection port). Flasks were dosed with C2 N2 (10 mg/L), phosphine (2 mg/L) or methyl bromide (32 mg/L). After 24 h the headspace concentrations were determined by gas chromatography. Each flask was then opened and the wheat sample aired briefly by pouring the wheat from one container to another and then the remaining sorbed fumigant was estimated by grinding the wheat sample in a gas-tight Waring blender canister fitted was a sampling port and determining the released fumigant by head space analysis.

Leucadendron = test: Phytotoxicity to cut flowers, Leucadendron; details: methyl bromide 30 mg L^-1, 2 h; control 7
Description: (§4) Field Carnations and Leucadendrons were purchased from a local wholesale florist. […]
(§5) After 2 hours the drums were opened and allowed to air in a fume hood, the flowers were removed from the drums, the stems trimmed and the bunches placed in water and left in the fume hood to air for 2 hours then placed in a cool room.
(§6) Assessment of the phytoxicity of the fumigants was done after one week of cold storage.
(§7) The phytoxicity assessments were made by a panel of six people who were asked independently to give a value out of 10 (Where 10 is excellent and 1 is unsaleable) for each flower and each treatment. The figures given below are the averaged results.

Carnation = test: Phytotoxicity to cut flowers, Carnation; details: methyl bromide 30 mg L^-1, 2 h; control 5
Description: as §4, §5, §6, §7

Cryptotermes brevis = test: Toxicity to dry wood termites, C. brevis; type: in vivo; details: 24 h, 30° C., survival after one week
Description: as §1, §2, §3

Cryptotermes domesticus = test: Toxicity to dry wood termites, C. domesticus; type: in vivo; details: 24 h, 30° C., survival after one week
Description: as §1, §2, §3

[4] = cited from earlier work; for carcinogenicity: Sax and Lewis, 1989; for TLV value: worker safety limit
[5] = cited from earlier work

## CBr [methyl bromide]
[1]; Monro, 1967
  CT product for control of adults: 33.0 mghL^-1
[2]
  applied concentration giving 100% mortality: 3.47 mgL^-1
[3]
  initial fumigant remaining in headspace after 24 h: 69%
Leucadendron
  phytotoxicity score (10 excellent, 1 unsaleable): 6
Carnation
  phytotoxicity score (10 excellent, 1 unsaleable): 3
Cryptotermes brevis
  applied concentration giving 100% mortality: 1.74 mgL^-1
Cryptotermes domesticus
  applied concentration giving 100% mortality: 4.35 mgL^-1

## C1CO1 [ethylene oxide]
[4]
  carcinogenicity: suspect carcinogen
  TLV value: 0.1 ppm
[5]
  solubility in water: poorly soluble in water

## S=C=S [carbon disulphide]
[1]; Monro, 1967
  CT product for control of adults: 294.0 mghL^-1

## P [phosphine]
[2]
  applied concentration giving 100% mortality: 0.43 mgL^-1
[3]
  initial fumigant remaining in headspace after 24 h: 91%
Cryptotermes brevis
  applied concentration giving 100% mortality: 0.43 mgL^-1
Cryptotermes domesticus
  applied concentration giving 100% mortality: 0.22 mgL^-1

## C=O [formaldehyde]
[4]
  carcinogenicity: suspect carcinogen
  TLV value: 1 ppm

## O=C=S [carbonyl sulphide]
[1]; Desmarchelier 1994
  CT product for control of adults: 68.7 mghL^-1

## ClCCCl [ethylene dichloride]
[1]; Monro, 1967
  CT product for control of adults: 636.0 mghL^-1
